Tests used:
Format in all cases: cell-based
B16 melanoma cells = experiment: Protein profile (SDS-PAGE) of treated melanoma cells; conditions: cisplatin 5 μg/ml, paclitaxel 150 μg/ml, gemcitabine 800 nm; serum free media, 37° C.; vs untreated cell profile
Method: The B16 melanoma cells were treated with, cisplatin at 5 μg/ml, paclitaxel at 150 μg/ml,and gemcitabine at 800 nm. The treatment was carried out in serum free media at 37° C. The cells were lysed and SDS-PAGE was run to obtain proteomic profile. Thus obtained profiles were overlapped with the untreated cell protein profile. The protein profile was noticed for each treatment. The differently expressed protein was identified at 36 KDa.
36 KDa protein is commonly expressed protein when melanoma cells are treated with, cisplatin, paclitaxel, gemcitabine, or combination there of.

Mia-Pa-Ca-2 cells = experiment: Protein profile (SDS-PAGE) of treated pancreatic cancer cells; conditions: Mw 1:500, cisplatin 5 μg/ml, paclitaxel 150 μg/ml, gemcitabine 800 nm; serum free media, 37° C.; vs untreated cell profile
Method: The Mia-Pa-Ca-2 cells were treated with Mw Cells in ratio 1:500, cisplatin at 5 μg/ml, paclitaxel at 150 μg/ml, and gemcitabine at 800 nm. The treatment was carried out in serum free media at 37° C. The cells were lysed and SDS-PAGE was run to obtain proteomic profile. Thus obtained profiles were overlapped with the untreated cell protein profile. The protein profile was noticed for each treatment. The differently expressed protein was identified at 45 KDa.
45 KDa protein is commonly over expressed protein when pancreatic cancer cells are treated with Mw, cisplatin, paclitaxel, gemcitabine, or combination there of.

[1] = tested on: Lung cancer cell lines (A549 and L132); experiment: Protein profile (SDS PAGE and Western blot) of Mw treated lung cancer cell lines; conditions: Mw/cells 1:100, 4 hours at 37° C.; vs untreated cell profile
Method: Different Lung cancer cell lines (A549 and L132) were treated with Mw/cells in the ratio of 1:100. Each treatment group contained 4×10E6 cells. Cells treated with Mw were incubated for 4 hours at 37° C. After treatment, cells were pelleted and supernatant was discarded. Cells were then resuspended in DPBS (400 μl). Cells were then sonicated for 15 minutes with pulse of 10 seconds on and 20 seconds off. The lysate obtained was estimated for the protein content using BCA Protein assay and protein was normalized to load 30 μg protein in each well. This was followed by 12% reducing SDS PAGE and Western blot analysis to obtain protein profile and humoral response. Thus obtained profile was compared with untreated cell protein profile.

Compound	commonly expressed protein after treatment (SDS-PAGE band) (B16 melanoma cells) [KDa]	commonly over expressed protein after treatment (SDS-PAGE band) (Mia-Pa-Ca-2 cells) [KDa]	common protein in both treated cell lines [1] [KDa]
CC(=O)O[C@H]1C(=O)[C@@]2(C)[C@H]([C@H](OC(=O)c3ccccc3)[C@]3(O)C[C@H](OC(=O)[C@H](O)[C@@H](NC(=O)c4ccccc4)c4ccccc4)C(C)=C1C3(C)C)[C@]1(OC(C)=O)CO[C@@H]1C[C@@H]2O [paclitaxel]	36	45	
N.N.[Cl][Pt][Cl] [cisplatin]	36	45	
Mycobacterium w [Mw]		45	43
Nc1ccn([C@@H]2O[C@H](CO)[C@@H](O)C2(F)F)c(=O)n1 [gemcitabine]	36	45	
